Results published in ChEMBL document CHEMBL1201862, “PubChem BioAssay data set” (2004).
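Grown in 96-well plates, cells were treated for 48 hours with each compound at five concentrations. Insufficient inhibition: endpoint recorded as highest concentration tested. Here, GI50 denotes the concentration required for 50% inhibition of growth.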 Active and inactive are the calls of the source. Cut-off read from the data, not from the text of the source: active = GI50 up to about 1.1 µM and inactive = higher.

How the values were obtained:
Assay in all cases: growth of human tumour cells (NCI), 48 h
HL-60 = test system: HL-60
K562 = test system: K562
SF-295 = test system: SF-295
SK-MEL-28 = test system: SK-MEL-28
EKVX = test system: EKVX
MOLT-4 = test system: MOLT-4
SF-539 = test system: SF-539
U-251 = test system: U-251
XF498 = test system: XF498
SK-MEL-2 = test system: SK-MEL-2
SW-620 = test system: SW-620
SK-OV-3 = test system: SK-OV-3
HOP-62 = test system: HOP-62
CCRF-CEM = test system: CCRF-CEM
HOP-92 = test system: HOP-92
KM-20L2 = test system: KM-20L2
UACC-62 = test system: UACC-62
UO-31 = test system: UO-31
OVCAR-8 = test system: OVCAR-8
HCC 2998 = test system: HCC 2998
LOX IMVI = test system: LOX IMVI
RPMI-8226 = test system: RPMI-8226
RXF 393 = test system: RXF 393
ACHN = test system: ACHN
TK-10 = test system: TK-10
NCI-H23 = test system: NCI-H23
OVCAR-3 = test system: OVCAR-3
786-0 = test system: 786-0
KM12 = test system: KM12
SN12C = test system: SN12C
NCI-H522 = test system: NCI-H522
A549 = test system: A549
SR = test system: SR
UACC-257 = test system: UACC-257
SF-268 = test system: SF-268
LXFL 529 = test system: LXFL 529
OVCAR-5 = test system: OVCAR-5
DMS-273 = test system: DMS-273
NCI-H460 = test system: NCI-H460
SK-MEL-5 = test system: SK-MEL-5
M14 = test system: M14
HCT-116 = test system: HCT-116
COLO 205 = test system: COLO 205
SNB-19 = test system: SNB-19
DMS-114 = test system: DMS-114
HCT-15 = test system: HCT-15
HOP-18 = test system: HOP-18
DLD-1 = test system: DLD-1
SNB-78 = test system: SNB-78
Malme-3M = test system: Malme-3M
IGROV-1 = test system: IGROV-1
SNB-75 = test system: SNB-75
NCI-H226 = test system: NCI-H226
OVCAR-4 = test system: OVCAR-4
CAKI-1 = test system: CAKI-1
HT-29 = test system: HT-29
M19-MEL = test system: M19-MEL

Structure (SMILES): COc1cc2c(cc1OC)C(=O)N1CCCC1C(=O)S2 (centres undefined)
- GI50 (HL-60): > 100 µM (inactive)
- GI50 (K562): > 100 µM (inactive)
- GI50 (SF-295): > 100 µM (inactive)
- GI50 (SK-MEL-28): > 100 µM (inactive)
- GI50 (EKVX): > 100 µM (inactive)
- GI50 (MOLT-4): > 100 µM (inactive)
- GI50 (SF-539): > 100 µM (inactive)
- GI50 (U-251): > 100 µM (inactive)
- GI50 (XF498): 92.7 µM (inactive)
- GI50 (SK-MEL-2): > 100 µM (inactive)
- GI50 (SW-620): > 100 µM (inactive)
- GI50 (SK-OV-3): > 100 µM (inactive)
- GI50 (HOP-62): > 100 µM (inactive)
- GI50 (CCRF-CEM): > 100 µM (inactive)
- GI50 (HOP-92): > 100 µM (inactive)
- GI50 (KM-20L2): > 100 µM (inactive)
- GI50 (UACC-62): 35.6 µM (inactive)
- GI50 (UO-31): > 100 µM (inactive)
- GI50 (OVCAR-8): > 100 µM (inactive)
- GI50 (HCC 2998): > 100 µM (inactive)
- GI50 (LOX IMVI): > 100 µM (inactive)
- GI50 (RPMI-8226): > 100 µM (inactive)
- GI50 (RXF 393): > 100 µM (inactive)
- GI50 (ACHN): > 100 µM (inactive)
- GI50 (TK-10): > 100 µM (inactive)
- GI50 (NCI-H23): > 100 µM (inactive)
- GI50 (OVCAR-3): > 100 µM (inactive)
- GI50 (786-0): > 100 µM (inactive)
- GI50 (KM12): > 100 µM (inactive)
- GI50 (SN12C): > 100 µM (inactive)
- GI50 (NCI-H522): > 100 µM (inactive)
- GI50 (A549): > 100 µM (inactive)
- GI50 (SR): > 100 µM (inactive)
- GI50 (UACC-257): > 100 µM (inactive)
- GI50 (SF-268): > 100 µM (inactive)
- GI50 (LXFL 529): > 100 µM (inactive)
- GI50 (OVCAR-5): > 100 µM (inactive)
- GI50 (DMS-273): > 100 µM (inactive)
- GI50 (NCI-H460): > 100 µM (inactive)
- GI50 (SK-MEL-5): > 100 µM (inactive)
- GI50 (M14): > 100 µM (inactive)
- GI50 (HCT-116): > 100 µM (inactive)
- GI50 (COLO 205): > 100 µM (inactive)
- GI50 (SNB-19): > 100 µM (inactive)
- GI50 (DMS-114): > 100 µM (inactive)
- GI50 (HCT-15): > 100 µM
- GI50 (HOP-18): 25.4 µM (inactive)
- GI50 (DLD-1): > 100 µM (inactive)
- GI50 (SNB-78): > 100 µM (inactive)
- GI50 (Malme-3M): > 100 µM (inactive)
- GI50 (IGROV-1): 19.9 µM (inactive)

Structure (SMILES): O=c1oc(-c2ccccc2)cn1-c1ccccc1
- GI50 (HL-60): > 100 µM (inactive)
- GI50 (K562): > 100 µM (inactive)
- GI50 (SK-MEL-28): > 100 µM (inactive)
- GI50 (SNB-75): > 100 µM (inactive)
- GI50 (MOLT-4): > 100 µM (inactive)
- GI50 (SF-539): 88.7 µM (inactive)
- GI50 (U-251): > 100 µM (inactive)
- GI50 (XF498): > 100 µM (inactive)
- GI50 (NCI-H226): > 100 µM (inactive)
- GI50 (OVCAR-4): > 10 µM (inactive)
- GI50 (HOP-62): > 100 µM (inactive)
- GI50 (CCRF-CEM): > 100 µM (inactive)
- GI50 (KM-20L2): 94.8 µM (inactive)
- GI50 (HCC 2998): > 100 µM (inactive)
- GI50 (LOX IMVI): 94.8 µM (inactive)
- GI50 (RPMI-8226): > 100 µM (inactive)
- GI50 (RXF 393): > 100 µM (inactive)
- GI50 (NCI-H23): > 100 µM (inactive)
- GI50 (786-0): > 100 µM (inactive)
- GI50 (SN12C): > 100 µM (inactive)
- GI50 (NCI-H522): 70.8 µM (inactive)
- GI50 (LXFL 529): > 100 µM (inactive)
- GI50 (DMS-273): > 100 µM (inactive)
- GI50 (NCI-H460): > 100 µM (inactive)
- GI50 (M14): > 100 µM (inactive)
- GI50 (HCT-116): > 100 µM (inactive)
- GI50 (SNB-19): > 100 µM (inactive)
- GI50 (HOP-18): 95.3 µM (inactive)
- GI50 (DLD-1): > 100 µM (inactive)
- GI50 (SNB-78): > 100 µM (inactive)

Structure (SMILES): Cc1nc(N)nc(N)c1CCCCc1ccc(N)cc1
- GI50 (HL-60): 3.07 µM (inactive)
- GI50 (K562): 0.321 µM (active)
- GI50 (SF-295): 1.94 µM (inactive)
- GI50 (SK-MEL-28): 10.1 µM (inactive)
- GI50 (SNB-75): 11.9 µM (inactive)
- GI50 (EKVX): 9.23 µM (inactive)
- GI50 (MOLT-4): 1.58 µM (inactive)
- GI50 (SF-539): 7.98 µM (inactive)
- GI50 (U-251): 3.03 µM (inactive)
- GI50 (XF498): 11.4 µM (inactive)
- GI50 (NCI-H226): 25.8 µM (inactive)
- GI50 (SK-MEL-2): 9.06 µM (inactive)
- GI50 (CAKI-1): 9.66 µM (inactive)
- GI50 (HT-29): 0.729 µM (active)
- GI50 (SW-620): 3.29 µM (inactive)
- GI50 (OVCAR-4): 10.6 µM (inactive)
- GI50 (SK-OV-3): 2.88 µM (inactive)
- GI50 (HOP-62): 5.11 µM (inactive)
- GI50 (M19-MEL): 8.55 µM (inactive)
- GI50 (CCRF-CEM): 3.01 µM (inactive)
- GI50 (HOP-92): 3.93 µM (inactive)
- GI50 (KM-20L2): 3.74 µM (inactive)
- GI50 (UACC-62): 1.86 µM (inactive)
- GI50 (UO-31): 13.2 µM (inactive)
- GI50 (OVCAR-8): 3.18 µM (inactive)
- GI50 (HCC 2998): 3.25 µM (inactive)
- GI50 (LOX IMVI): 1.09 µM (active)
- GI50 (RPMI-8226): 5.81 µM (inactive)
- GI50 (ACHN): 4.12 µM (inactive)
- GI50 (TK-10): 11.5 µM (inactive)
- GI50 (NCI-H23): 4.37 µM (inactive)
- GI50 (OVCAR-3): 5.53 µM (inactive)
- GI50 (786-0): 0.728 µM (active)
- GI50 (KM12): 9.35 µM (inactive)
- GI50 (SN12C): 4.3 µM (inactive)
- GI50 (NCI-H522): 4.26 µM (inactive)
- GI50 (A549): 0.668 µM (active)
- GI50 (SR): 1.28 µM (inactive)
- GI50 (UACC-257): 5.07 µM (inactive)
- GI50 (SF-268): 0.995 µM (active)
- GI50 (LXFL 529): 6.46 µM (inactive)
- GI50 (OVCAR-5): 4.46 µM (inactive)
- GI50 (NCI-H460): 0.959 µM (active)
- GI50 (SK-MEL-5): 3.43 µM (inactive)
- GI50 (M14): 2.58 µM (inactive)
- GI50 (HCT-116): 0.569 µM (active)
- GI50 (COLO 205): 10.4 µM (inactive)
- GI50 (SNB-19): 6.87 µM (inactive)
- GI50 (HCT-15): 4.09 µM
- GI50 (DLD-1): 6.43 µM (inactive)
- GI50 (SNB-78): 9.46 µM (inactive)
- GI50 (Malme-3M): 1.96 µM (inactive)
- GI50 (IGROV-1): 3.35 µM (inactive)
